Assay results reported in paper PMC3356383, “Efficacious Intermittent Dosing of a Novel JAK2 Inhibitor in Mouse Models of Polycythemia Vera” (PLoS ONE, 2012).
Marks after values point to notes of the source that are not given here.

Experiments:
JAK2 (JH1) WT = biological target: T1, JAK2 (JH1) WT (Homo sapiens, UniProt O60674); experiment: JAK2 enzyme assay, HTRF detection; assay type: biochemical
T1 construct: JAK2, 25 pM enzyme (JH1, JH1–JH2^wt, JH1–JH2^V617F domains)
Procedure: (§1) JAK1, JAK2, JAK3, and TYK2 kinase activity assays were performed as described previously using HTRF detection technology and the peptide substrate amino hexanoyl biotin-EQEDEPEGDYFEWLE-NH2. Each reaction was incubated between 60 and 80 min at room temperature. Final conditions were as follows: JAK1, 400 pM enzyme, Hepes pH 7.5, 10 mM MgCl2, 0.01% Brij-35, 1 mM EGTA, 0.1 mg/ml BSA), 2 mM DTT, 2 µM peptide substrate, 25 µM MgATP, 5% DMSO and the desired concentration of subject compound; JAK2, 25 pM enzyme (JH1, JH1–JH2^wt, JH1–JH2^V617F domains), 2 µM peptide substrate, 15 µM MgATP, 5 mM MgCl2, 100 mM NaCl, 2 mM DTT, 0.1 mg/ml BSA, 50 mM Tris (pH 7.4), 5% DMSO and the desired concentration of subject compound; JAK3, 250 pM enzyme, 50 mM Hepes pH 7.5, 10 mM MgCl2, 0.01% Brij-35, 1 mM EGTA, 0.1 mg/ml BSA), 2 mM DTT, 2.0 µM peptide substrate, 25 µM MgATP, 5% DMSO, and the desired concentration of subject compound; TYK2, 125 pM enzyme, 50 mM Hepes pH 7.5, 10 mM MgCl2, 0.01% Brij-35, 1 mM EGTA, 0.1 mg/ml BSA, 2 mM DTT, 2.0 µM peptide substrate, 15 µM MgATP, 5% DMSO and the desired concentration of subject compound.

JAK2 (JH1–JH2) V617F = biological target: T2, JAK2 (JH1–JH2) V617F (Homo sapiens, UniProt O60674, V617F); experiment: JAK2 enzyme assay, HTRF detection; assay type: biochemical; conditions: kinase activity, mean, n = 3, read-out: IC50, cell-free JAK2 (JH1–JH2) V617F
T2 construct: JAK2, 25 pM enzyme (JH1, JH1–JH2^wt, JH1–JH2^V617F domains)
Procedure: as §1

JAK2 (JH1–JH2) WT = biological target: T3, JAK2 (JH1–JH2) WT (Homo sapiens, UniProt O60674); experiment: JAK2 enzyme assay, HTRF detection; assay type: biochemical; conditions: kinase activity, mean, n = 3, read-out: IC50, cell-free JAK2 (JH1–JH2) WT
T3 construct: JAK2, 25 pM enzyme (JH1, JH1–JH2^wt, JH1–JH2^V617F domains)
Procedure: as §1

JAK1 (JH1) = biological target: T4, JAK1 (JH1) (Homo sapiens, UniProt P23458); experiment: JAK1 enzyme assay, HTRF detection; assay type: biochemical
T4 construct: JAK1 (JH1)
Procedure: as §1

BaF3 (JAK2 V617F) cells = experiment: Cell proliferation, ViaLight assay; assay type: cell-based; conditions: Mus musculus, 48 hour
Procedure: (§2) Cell proliferation was measured by ViaLight (Lonza Group Ltd) assay as follows. Cells (1000–2000) were seeded into 384-well plates and incubated 16 hours @ 37°C, 5% CO2. […] Cells were lysed and ATP detected as per the manufacturer protocol.

BaF3 (JAK2 WT) cells = experiment: Cell proliferation, ViaLight assay; assay type: cell-based; conditions: Mus musculus, 48 hour, EPO-stimulated
Procedure: as §2

CTLL-2 cells = experiment: Cell proliferation, ViaLight assay; assay type: cell-based
Procedure: as §2

H2122 cells = experiment: Cell proliferation, ViaLight assay; assay type: cell-based; conditions: Homo sapiens, NCI-H2122, 48 hour, epithelial lung cancer cell line
Procedure: as §2

[1] = tested on: JAK2V617F-Luciferase expressing cells; experiment: Bone marrow transplant mice expressing JAK2V617F-Luciferase (PV model); assay type: in vivo
Procedure: Production of retrovirus containing cDNA of JAK2 V617F fused to luciferase 2 was performed as described previously as was transplantation of bone marrow cells infected with virus into irradiated mice.
Imaging of mice expressing JAK2 V617F-Luciferase was conducted as described previously.
Measurement of the level of JAK2 V617F allele in the tissues of transplanted mice was done as described previously.
(§3) Cells were stained in PBS, 0.5% BSA with antibodies for 15 min on ice. Stained cells were acquired on a 4-laser LSR-II (BD Biosciences) and data analyzed using FlowJo software (Treestar). Dead cells were labeled with the blue fluorescent LIVE/DEAD reactive dye (Invitrogen) and excluded from the analysis.

thymus cell populations = experiment: Cell populations in thymus of normal mice; assay type: in vivo; conditions: 54 mpk
Procedure: as §3
Monoclonal antibodies (anti-mouse): CD3, CD4, CD5, CD8, CD11b, CD19, CD21/35, CD23, CD25, CD43, CD44, CD49b, CD69, CD71, CD93, CD117, B220, GR-1, IgD, NK1.1, NKG2A/C/E, NKG2D, Ter119 were purchased from BD Biosciences; CD4, CD8, CD49b, CD62L, TCRβ, TCRγδ from eBioscience; GR-1 from Invitrogen; CD43 from Miltenyi Biotec. Goat anti-mouse IgM-FITC, (μ chain specific) from Jackson Immuno Research.
JAK2 and its family members JAK1 and JAK3 are known to signal downstream of cytokines that play essential roles in the development of lymphoid cell populations. To examine more thoroughly the effects of JAK2 inhibition on lymphoid cells, we analyzed wild-type (C57BL/6) mice treated with 54 mpk MRLB-11055 for 3 days, 6 days or up to 5 cycles of 3 days (“on”) followed by a 4 day holiday (“off”).
Supplementary file pone.0037207.s007.doc: Table S5 Effect of MRLB-11055 on Cell Populations in Thymus of Normal Mice. Cell counts measured by Advia. Cycles refer to 3 days of treatment followed by a 4 day holiday. *p<0.05 in Student T test when comparing vehicle 5 cycle with treatment 5 cycle and vehicle 2 cycle with treatment 2 cycle, resp. (DOC) Click here for additional data file.

[2] = 2 cycles (3 days treatment, 4 day holiday)
[3] = 5 cycles (3 days treatment, 4 day holiday)

T4 sequence (P23458 875-1153 limits assumed, species assumed): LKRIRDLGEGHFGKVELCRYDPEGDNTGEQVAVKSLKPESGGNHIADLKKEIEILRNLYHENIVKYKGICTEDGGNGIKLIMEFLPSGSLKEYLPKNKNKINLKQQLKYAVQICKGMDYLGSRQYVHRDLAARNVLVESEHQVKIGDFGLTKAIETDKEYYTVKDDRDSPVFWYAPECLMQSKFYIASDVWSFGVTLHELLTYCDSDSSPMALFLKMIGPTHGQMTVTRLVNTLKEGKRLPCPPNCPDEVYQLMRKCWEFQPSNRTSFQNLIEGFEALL
T1 sequence (O60674 849-1124 limits assumed): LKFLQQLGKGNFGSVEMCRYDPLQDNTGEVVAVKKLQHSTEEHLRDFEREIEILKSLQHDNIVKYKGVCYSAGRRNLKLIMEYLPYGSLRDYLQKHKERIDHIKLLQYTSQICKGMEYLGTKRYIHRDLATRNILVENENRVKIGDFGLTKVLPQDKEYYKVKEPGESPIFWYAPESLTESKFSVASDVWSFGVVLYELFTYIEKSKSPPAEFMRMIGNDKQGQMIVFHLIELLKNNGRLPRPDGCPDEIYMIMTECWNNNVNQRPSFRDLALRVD
T2 sequence (O60674 532-1132 V617F limits assumed): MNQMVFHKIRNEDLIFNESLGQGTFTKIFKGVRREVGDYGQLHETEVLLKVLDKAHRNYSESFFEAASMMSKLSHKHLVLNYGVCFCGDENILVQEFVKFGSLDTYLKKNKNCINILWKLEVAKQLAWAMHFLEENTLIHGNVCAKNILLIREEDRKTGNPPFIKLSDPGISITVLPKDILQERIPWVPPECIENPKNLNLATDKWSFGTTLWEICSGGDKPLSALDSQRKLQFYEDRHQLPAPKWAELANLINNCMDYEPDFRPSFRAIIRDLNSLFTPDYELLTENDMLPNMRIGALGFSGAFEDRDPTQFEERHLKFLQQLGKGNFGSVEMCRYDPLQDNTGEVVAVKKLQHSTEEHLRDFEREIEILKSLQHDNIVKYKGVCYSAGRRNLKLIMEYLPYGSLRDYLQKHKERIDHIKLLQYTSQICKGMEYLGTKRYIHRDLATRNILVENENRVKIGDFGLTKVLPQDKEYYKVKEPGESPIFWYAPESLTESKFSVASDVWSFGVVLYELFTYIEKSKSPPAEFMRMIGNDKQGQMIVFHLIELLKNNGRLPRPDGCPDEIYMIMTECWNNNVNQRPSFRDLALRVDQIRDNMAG
T3 sequence (O60674 532-1132 limits assumed): as the sequence (O60674 532-1132 V617F limits assumed) above, with F86V counted along it

SMILES: NC(=O)c1cnc(N[C@H](C2CC2)C(F)(F)F)c2c1[nH]c1cc(-c3cnc(N)nc3)ccc12 [MRLB-11055]
- Manner of inhibition of the JH1 kinase domain (JAK2 (JH1) WT; data not shown): ATP-competitive
- IC50 (JAK2 (JH1) WT; kinase activity, HTRF assay, mean, n = 3, read-out: IC50, cell-free JAK2 (JH1) WT): 0.08 nM
- IC50 (JAK2 (JH1–JH2) V617F): 0.35 nM
- IC50 (JAK2 (JH1–JH2) WT): 0.78 nM
- IC50 (JAK1 (JH1); HTRF, mean, n = 3, read-out: IC50, cell-free JAK1 (JH1)): 1.5 nM
- Selectivity for JAK2 over JAK1 (JAK1 (JH1); cell-free assays): 20 fold
- IC50 (BaF3 (JAK2 V617F) cells): 29 nM
- IC50 (BaF3 (JAK2 WT) cells): 14 nM
- Fold more potent against IL-2-dependent CTLL cells than JAK2V617F BaF3 cells in proliferation assays (CTLL-2 cells): 2 fold
- IC50 (CTLL-2 cells; Mus musculus, CTLL-2, 48 hour, Vialight): 13 nM
- IC50 (H2122 cells): 1900 nM
- Reduction in spleen BLI over first 3 days of treatment ([1]; 54 mpk oral once daily for 3 days, cycle 1): ~20 fold
- Spleen BLI, splenic CD71+TER119+ cells and V617F allele burden in peripheral blood ([1]; 54 mpk oral once daily, Day 3, no further benefit out to Day 7): Significant reductions in all three endpoints
- Spleen weight at end of second holiday period ([1]; 54 mpk, 2 cycles): normalization in spleen weight
- Hematocrit after 2 cycles ([1]; 54 mpk, 2 cycles of 3 days on, 4 days off, decreased from 53%, vehicle 53% to 56%): 42%
- CD71+TER119+ cells in spleen relative to vehicle controls ([1]; 54 mpk, end of second holiday period): significant reduction
- Level of pSTAT5 in spleens of JAK2V617F-Luciferase mice ([1]; 1 hour post-dose): significantly inhibited
- Increase in spleen BLI over the 4 day holiday ([1]; 4 days after 3 days of 54 mpk, cycle 1): ~4 fold
- Spleen BLI after holiday, fold less than pre-treatment levels ([1]; end of cycle 1 (3 days on, 4 days off), 54 mpk): about 5 fold
- Thymus CD4+CD8+ (thymus cell populations; [2]): 91.3 ± 0.3%
- Thymus CD4-CD8- (thymus cell populations; [2]): 3.0 ± 0.8%
- Thymus Cell Count (thymus cell populations; [2]): 75.4 ± 26.5 x 10^6
- Thymus Single Positive CD4+ (thymus cell populations; [2]): 3.9 ± 0.8* %
- Thymus Single Positive CD8+ (thymus cell populations; [2]): 0.55 ± 0.03* %
- Thymus CD4+CD8+ (thymus cell populations; [3]): 90.7 ± 1.5%
- Thymus CD4-CD8- (thymus cell populations; [3]): 2.1 ± 0.6%
- Thymus Cell Count (thymus cell populations; [3]): 130.3 ± 27.1 x 10^6
- Thymus Single Positive CD4+ (thymus cell populations; [3]): 5.0 ± 1.1%
- Thymus Single Positive CD8+ (thymus cell populations; [3]): 1.4 ± 0.2* %
- Thymus CD4+CD8+ (thymus cell populations; 3 days): 85.6 ± 2.4* %
- Thymus CD4-CD8- (thymus cell populations; 3 days): 3.5 ± 0.6%
- Thymus Cell Count (thymus cell populations; 3 days): 37.3 ± 13.4* x 10^6
- Thymus Single Positive CD4+ (thymus cell populations; 3 days): 7.1 ± 1.3%
- Thymus Single Positive CD8+ (thymus cell populations; 3 days): 2.7 ± 0.8%
- Thymus CD4+CD8+ (thymus cell populations; 6 days): 87.9 ± 5.0%
- Thymus CD4-CD8- (thymus cell populations; 6 days): 2.4 ± 0.9%
- Thymus Cell Count (thymus cell populations; 6 days): 37.3 ± 12.1* x 10^6
- Thymus Single Positive CD4+ (thymus cell populations; 6 days): 5.8 ± 2.7%
- Thymus Single Positive CD8+ (thymus cell populations; 6 days): 2.7 ± 1.1%
